{
  "source": "patent US5183736A",
  "about": "“Methods using estrogen receptor as a constitutive transcriptional activator and a repressor” (La Jolla Cancer Research Foundation, priority 1990, dated 1993)",
  "molecules": {"B1": {"name": "ERE palindrome (dsDNA)", "DNA 1": "TCAGGTCACTGTGACCTGA", "DNA 2": "TCAGGTCACAGTGACCTGA"}},
  "key": {"[1]": {"test_system": "ERval", "experiment": "gel retardation assay, ERval binding to 32P-labelled ERE", "parameters": "species or system human", "settings": "for effect on binding of ERval to the ERE: high concentrations, FIG. 2b", "protocol": "(§1) (a) DNA binding of ER and ER mutants. […] As control, the labelled ERE (lane 1) and the lysate (lane 2) were run alone. Binding of receptors to labelled ERE was competed with 50 fold excess of unlabelled ERE(S) or nonspecific unlabelled oligonucleotides (N).\n(§2) To investigate the ER protein-DNA interaction gel retardation assays were performed^5,13. Receptor proteins were synthesized by in vitro transcription/translation^5,7, incubated with ^32 P-labelled ERE, and run on a non-denaturing acrylamide gel (FIG. 2a). The assay was performed as follows. ER and ERval cDNA cloned in Bluescript (Stratagene) were transcribed using T7 or T3 RNA polymerase, and translated, using rabbit reticulocyte translation system (Promega) as described^5. 5 μl of in vitro translated receptor protein were incubated with ^32 P labeled ERE fragment in a reaction mixture containing 20 mM Hepes buffer pH 7.9, 50 mM KCl, 1 mM DTT, 2.5 mM MgCl2, 10% glycerol, and 1 μg poly (dI-dC) at 25° C. for 20 min. Reaction mixtures were loaded on a 5% non-denaturing polyacrylamide gel containing 10 mM HEPES pH 7.9 and 3.3 mM sodium acetate pH 7.9, and electrophoresed. Gels were run at 4° C., 140 V for 3 h with continued circulation of buffer."}, "[2]": {"test_system": "ER-TRα hybrid receptor", "experiment": "ERE-CAT activation by hybrid receptor ER-TRα alone in CV-1 cells", "assay_type": "cell-based, human", "settings": "10^-7 M T3, FIG. 5", "protocol": "(§3) A representative experiment is shown.\n(§4) The transient transfection was performed as follows. […] After 24 h cultures were washed with PBS and new medium was added. A modified calcium phosphate precipitation procedure was used for transient transfection^20. 18 h after transfections, cultures were washed twice with PBS, and fresh medium was added together with the desired amount of hormone. After 24 h. cells were collected and cell extract was prepared. β-gal assay was performed as described^21. CAT activity was assayed by using ^3 H-acetylated chloramphenicol and a mixed-phase scintillation measurement, as described in reference 22, below. CPM corrected for β-gal activity represents relative CAT activity. ERE-CAT was constructed by inserting the above synthetic ERE-oligonucleotide with BglII linkers into the BamH1 site of pBLCAT2^23."}, "[3]": {"test_system": "ERdel", "settings": "10^-8 M E2, FIG. 2a", "protocol": "as §1, §2"}, "[4]": {"test_system": "TRα-ERval hybrid receptor", "settings": "10^-8 M E2, FIG. 4c", "protocol": "as §2"}, "[5]": {"target": "human estrogen receptor (ER, wild type, GLY at position 400) (Homo sapiens, UniProt P03372)", "sequence (P03372 whole entry)": "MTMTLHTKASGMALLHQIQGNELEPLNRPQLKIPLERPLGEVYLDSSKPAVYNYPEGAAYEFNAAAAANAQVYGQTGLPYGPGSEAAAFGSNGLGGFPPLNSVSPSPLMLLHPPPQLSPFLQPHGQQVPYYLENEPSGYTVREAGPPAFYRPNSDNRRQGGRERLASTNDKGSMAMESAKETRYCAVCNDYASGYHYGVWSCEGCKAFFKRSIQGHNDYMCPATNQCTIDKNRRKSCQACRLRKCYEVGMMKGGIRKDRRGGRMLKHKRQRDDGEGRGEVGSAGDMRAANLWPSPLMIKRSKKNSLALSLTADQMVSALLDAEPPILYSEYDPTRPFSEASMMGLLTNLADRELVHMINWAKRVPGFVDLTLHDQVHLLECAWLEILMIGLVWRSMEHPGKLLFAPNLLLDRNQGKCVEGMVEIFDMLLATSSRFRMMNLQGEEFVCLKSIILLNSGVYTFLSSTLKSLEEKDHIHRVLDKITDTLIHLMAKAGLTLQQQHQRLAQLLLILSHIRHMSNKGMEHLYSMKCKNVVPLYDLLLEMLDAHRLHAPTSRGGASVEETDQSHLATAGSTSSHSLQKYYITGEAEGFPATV", "protocol": "(§5) (a) Induction of CAT activity. CV-1 cells were transiently cotransfected with 2 μg of ERE-CAT reporter plasmid alone (control) or together with 1 μg of receptor expression vector and 3 μg of β-gal expression vector (pCH110, Pharmacia) which served as an internal control. Carrier DNA (Bluescript) was added to 23 μg total DNA. […] CAT activity is corrected for β-gal activity.\nCV-1 cells were cotransfected with 2 μg ERE reporter plasmid alone (control) and with decreasing amounts of ER expression vector as indicated. […] A representative experiment is shown.\n(§6) CV-1 cells were cotransfected as described under (a) using ER (c) or ERval (d) expression vectors and reporter plasmid.\n(§7) CV-1 cells were transiently cotransfected with ER or ERval expression vectors and reporter plasmid as described in FIG. 1. […] CAT enzyme activities presented are corrected for transfection efficiency by measuring β-gal expression.\nCV-1 cells were cotransfected as described above. […] CAT activities were measured as described.\nTo investigate the transcriptional regulatory properties of the human estrogen receptor, transient cotransfection experiments were carried out in which CV-1 cells were transfected with an estrogen receptor (ER) expression vector and an estrogen responsive CAT (chloramphenicol acetyl-transferase) reporter gene. We investigated the \"wild type\" receptor^9 that carries a GLY at position 400 (ER) and a mutant receptor that contains a VAL at position 400 (ERval). This mutant receptor was cloned from a human mammary carcinoma cell line cDNA library and was originally thought to represent the wild type hER^10,11. In addition we investigated another mutant receptor that we obtained by deleting the coding sequences for amino acids 442-498 (ERdel) of the hormone binding domain. The estrogen response element (ERE) we use here is a palindromic sequence ([…]) that is derived from the vitellogenin gene promoter^12.\nas §4"}, "[6]": {"test_system": "mutant estrogen receptor ERval (VAL at position 400)", "experiment": "transient cotransfection ERE-CAT reporter assay in CV-1 cells, ERval", "assay_type": "cell-based, human", "protocol": "as §5, §6, §7\nTo investigate the transcriptional regulatory properties of the human estrogen receptor, transient cotransfection experiments were carried out in which CV-1 cells were transfected with an estrogen receptor (ER) expression vector and an estrogen responsive CAT (chloramphenicol acetyl-transferase) reporter gene. We investigated the \"wild type\" receptor^9 that carries a GLY at position 400 (ER) and a mutant receptor that contains a VAL at position 400 (ERval). This mutant receptor was cloned from a human mammary carcinoma cell line cDNA library and was originally thought to represent the wild type hER^10,11. […]"}, "[7]": {"target": "ER (Homo sapiens, UniProt P03372)", "sequence (P03372 whole entry)": "as above", "settings": "10^-8 M OH-Tam, 10^-7 M T3, FIG. 5", "protocol": "as §3, §4"}, "[8]": {"test_system": "ERval", "experiment": "repressor assay: ERval cotransfected with ER-TRα and ERE-CAT in CV-1 cells", "assay_type": "cell-based, human", "settings": "10^-8 M OH-Tam, 10^-7 M T3, FIG. 5", "protocol": "CAT activities were measured as described in the Example. A representative experiment is shown.\nThe transient transfection was performed as follows."}, "[9]": {"test_system": "ER-ERE complex", "experiment": "dissociation of the ER-ERE complex (gel retardation)", "assay_type": "binding, human", "settings": "10^-8 M ligand, 50 fold excess unlabelled ERE, 10° C., FIG. 6", "protocol": "At time 0, a 50 fold excess of non-labelled ERE was added. After incubation at 10° C. for the indicated time intervals, aliquots were loaded on a running non-denaturing 5% polyacrylamide gel.\nThe assay was performed as follows.\nTo measure the stability of the ER-ERE complexes in the presence and absence of ligands, the dissociation of the complexes was analyzed (FIG. 6)."}, "[10]": {"target": "estrogen receptor alpha (ER, wild type, Gly400) (Homo sapiens, UniProt P03372 P03372:1-595)", "sequence (P03372 whole entry, one chain of several)": "as the sequence (P03372 whole entry) above", "experiment": "EMSA; strong with and without E2 or Tam; 20 mM Hepes pH 7.9, 50 mM KCl, 2.5 mM MgCl2, poly(dI-dC), 25 C; dissociation not substantially changed by E2 or OH-Tam (FIG.)", "settings": "tags: rabbit reticulocyte lysate; chain copies: 2; label: 32P"}, "[11]": {"target": "ERval (estrogen receptor Val400) (Homo sapiens, UniProt P03372 P03372:1-595, G400V)", "sequence (P03372 whole entry G400V, one chain of several)": "as the sequence (P03372 whole entry) above, with G400V counted along it", "experiment": "EMSA; with E2", "settings": "tags: rabbit reticulocyte lysate; chain copies: 2; label: 32P"}},
  "note": "“Also recorded” adds a separate entry of the source.",
  "data": [
    {"molecule": "CC/C(=C(\\c1ccccc1)c1ccc(OCCN(C)C)cc1)c1ccccc1", "note": "[Tam, tamoxifen]", "values": [
      {"measurement": "effect on binding of ERval to the ERE", "setting": "[1]", "value": "drastically increase"}
    ]},
    {"molecule": "N[C@@H](Cc1cc(I)c(Oc2ccc(O)c(I)c2)c(I)c1)C(=O)O", "note": "[T3]", "values": [
      {"measurement": "ERE-CAT gene expression by ER-TRα alone", "setting": "[2]", "value": "efficiently enhances"}
    ]},
    {"molecule": "C[C@]12CC[C@@H]3c4ccc(O)cc4CC[C@H]3[C@@H]1CC[C@@H]2O", "note": "[E2, estradiol]", "values": [
      {"measurement": "binding of ERval to ERE with E2", "setting": "[1]; 10^-8 M E2, FIG. 2a", "value": "binds strongly to ERE when E2 is included"},
      {"measurement": "binding of ERdel to DNA with and without E2", "setting": "[3]", "value": "binds poorly to DNA in the presence and absence of E2"},
      {"measurement": "increase of affinity of TRα-ERval for DNA (TRE)", "setting": "[4]", "value": "several fold"}
    ]},
    {"molecule": "4-hydroxytamoxifen [OH-Tam]", "values": [
      {"measurement": "OH-Tam concentration sufficient to repress E2 action on ER", "setting": "[5]", "value": "nanomolar concentrations"},
      {"measurement": "concentration dependence of the agonist effect on ER", "setting": "[5]", "value": "does not increase with increasing concentrations of ligand"},
      {"measurement": "effect on ER basal level activity", "setting": "[5]", "value": "do not significantly repress"},
      {"measurement": "effect on basal level activity of ER at very low receptor concentrations", "setting": "[5]", "value": "increases the basal level activity"},
      {"measurement": "effect on transcriptional enhancing activity of ER", "setting": "[5]", "value": "maintained at the constitutive basal level"},
      {"measurement": "effect on activation capacity of ERval", "setting": "[6]; OH-Tam 10^-8 M, no E2, FIG. 3a", "value": "restores the basal gene activation capacity; also recorded: increased by OH-Tam (10^-8 M) to the basal level of ER wild type"},
      {"measurement": "effect on ERval activation capacity in the presence of E2", "setting": "[6]; OH-Tam with E2 10^-8 M, FIG. 3a", "value": "reduced to the wild type basal level"},
      {"measurement": "effect on binding of ERval to the ERE", "setting": "[1]", "value": "drastically increase"},
      {"measurement": "effect on repression capacity of ER towards ER-TRα", "setting": "[7]", "value": "slightly increases"},
      {"measurement": "repression of ER-TRα activity by ERval", "setting": "[8]", "value": "restores the ability of ERval to repress; also recorded: only an efficient repressor of ER-TRα in the presence of OH-Tam"},
      {"measurement": "effect on dissociation of the ER-DNA complex", "setting": "[9]", "value": "no substantial difference"}
    ]},
    {"molecule": "B1", "values": [
      {"measurement": "binding result", "setting": "[10]", "value": "binds"},
      {"measurement": "binding result", "setting": "[11]", "value": "binds"}
    ]}
  ]
}
